Five compounds from publication PMC1618416, “The Liganding of Glycolipid Transfer Protein Is Controlled by Glycolipid Acyl Structure” (PLoS Biology, 2006) can be followed below.

What all share (format): binding
The target of assay [1] is T1, glycolipid transfer protein (GLTP) (Homo sapiens, UniProt Q9NZD2).
T1 sequence (Q9NZD2 2-209): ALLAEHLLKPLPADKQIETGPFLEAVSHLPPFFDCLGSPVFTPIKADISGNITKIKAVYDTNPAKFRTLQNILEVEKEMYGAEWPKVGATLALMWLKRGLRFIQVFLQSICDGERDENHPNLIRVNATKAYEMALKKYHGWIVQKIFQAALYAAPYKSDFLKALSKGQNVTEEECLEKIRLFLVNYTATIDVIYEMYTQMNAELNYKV
Put plainly: X-ray crystal structure; tryptophan fluorescence Kd. The arrangement: recombinant human GLTP, His6- and S-tags removed by Factor Xa.

Assay [2] addresses T1, glycolipid transfer protein (GLTP). Put plainly: X-ray crystal structure ([…] Å); tryptophan fluorescence Kd. The arrangement: recombinant human GLTP, His6- and S-tags removed by Factor Xa.
Assay [3] shares this target. The experiment in a line: X-ray crystal structure. More on the design: recombinant human GLTP, His6- and S-tags removed by Factor Xa.
For assay [4] the target is unchanged. Put plainly: tryptophan fluorescence Kd (crystal structure 1SX6 from earlier paper). More on the design: recombinant human GLTP.

In the case of `CCCCCCCCCCCCC/C=C/[C@@H](O)[C@H](CO[C@@H]1O[C@H](CO)[C@@H](O[C@@H]2O[C@H](CO)[C@H](O)[C@H](O)[C@H]2O)[C@H](O)[C@H]1O)NC(=O)CCCCCCC` [8:0 LacCer, N-octanoyl lactosylsphingosine], the Kd in assay [1] came to 200 nM.

Turning to `CCCCCCCC/C=C\CCCCCCCCCCCCCC(=O)N[C@@H](CO[C@@H]1O[C@H](CO)[C@H](O)[C@H](O)[C@H]1O)[C@H](O)/C=C/CCCCCCCCCCCCC` [24:1 GalCer, N-cis-15-tetracosenoyl galactosyl-sphingosine], the Kd in assay [2] stood at 250 nM.

With `CCCCCCO[C@@H]1O[C@H](CO)[C@@H](O)[C@H](O)[C@H]1O` [n-hexyl-β-D-glucoside], the X-ray crystal structure result in assay [3] is reported as “The sugar headgroup of n-hexyl-β-D-glucoside binds the GLTP recognition center in a manner similar to all GSL-GLTP complexes”.

`CCCCC/C=C\C/C=C\CCCCCCCC(=O)N[C@@H](CO[C@@H]1O[C@H](CO)[C@H](O)[C@H](O)[C@H]1O)[C@H](O)/C=C/CCCCCCCCCCCCC` [18:2 GalCer, N-cis-N-cis-9,12-octadecenoyl galactosyl-sphingosine]: in assay [1], the Kd is 200 nM.

As to `CCCCCCCC/C=C\CCCCCCCC(=O)N[C@@H](CO[C@@H]1O[C@H](CO)[C@@H](O[C@@H]2O[C@H](CO)[C@H](O)[C@H](O)[C@H]2O)[C@H](O)[C@H]1O)[C@H](O)/C=C/CCCCCCCCCCCCC` [18:1 LacCer, N-cis-9-octadecenoyl lactosylsphingosine], the Kd in assay [4] was determined as 270 nM.
